B1: C5a: anaphylatoxin, pro-inflammatory polypeptide, the natural ligand of the receptor C5aR1 (protein, UniProt P01031 678-751, looked up)
C5a anaphylatoxin: TLQKKIEEIAAKYKHSVVKKCCYDGACVNNDETCEQRAARISLGPRCIKAFTECCVVASQLRANISHKDMQLGR
modifications: C5a anaphylatoxin
notes: anaphylatoxin, pro-inflammatory polypeptide, the natural ligand of the receptor C5aR1

How the values were obtained:
complement component 5a = target: T1, complement component 5a (Homo sapiens, UniProt P01031); experiment: BIAcore SPR binding to C5a immobilised on sensorchip CM5; settings: 300 microM in Running Buffer
T1 sequence (P01031 678-751 limits assumed): B1 C5a anaphylatoxin
Description: BIAcore technology was used to analyze the interaction between Paclitaxel and complement component 5a receptor 1 (C5aR1) (Example 1), complement component 5a receptor 2 (C5AR2) (Example 2) or complement component 5a (Example 3).
The BIAcore systems exploit the phenomenon of Surface Plasmon Resonance (SPR) to monitor interactions between molecules in real time. Briefly, SPR phenomenon occurs in thin conducting films at an interface between media of different refractive index. In BIAcore systems, the media are the glass of the sensorchip and the sample solution, and the conducting film is a thin layer of gold on the sensorchip surface. BIAcore monitors the interaction between two molecules, one attached to the sensor surface, called ligand, and the other one free in solution, and called analyte.
C5a was immobilized on a sensorchip (#29149604, Cytiva). In details, 20 microg/ml of recombinant protein C5a was diluted in 10 mM acetate buffer at pH 4.5 and injected over the surface of the sensorchip. Activation and deactivation of sensorchip were performed as described in Example 1a).
Paclitaxel was injected on the C5A surface of the sensorchip prepared in Example 2a) at a concentration of 300 microM in Running Buffer.RU can be detected by BIAcore.

[1] = system: RAW 264.7 mouse macrophages; experiment: Proteome profiler cytokine release assay in RAW 264.7 macrophages; format: cell-based; settings: 10 nM, 24 h; for proteome profile of cytokines released: murine
Description: RAW 264.7 (ATTC TIB-71) mouse macrophages were cultured following manufacturer's instructions using DMEM medium (Euroclone, MI, Italy) supplemented with 10% FBS (non-heat inactivated) (ATCC, USA) at 37° C., in a humidified 95% air-5% CO2 atmosphere and then were seeded at 1*10^4 cells/cm^2.
After 24 hours, cells were treated with C5a (diluted in medium) (10 nM, R&D, USA), Paclitaxel (diluted in medium) (10 nM, Sigma, USA) in the absence and in the presence of the C5a inhibitor DF3966A (10 μM), and anti C5aR Ab (BioLegend, CA, USA; 50 nM) or Avacopan (10 μM) for 24 hours, then the media was replaced with culture media (5 ml) for 24 h and then collected.
Conditioned media were centrifugated to remove particulates and assayed immediately. […] The reagents were prepared following manufacturer's protocols (R&D, USA). Briefly, the membranes were incubated with Array Buffer 6 for 1 hour on a rocking platform shaker. The samples were prepared by adding up to 1 ml of Array Buffer 4 in two separated tubes and then 15 microl of reconstituted mouse cytokine detection antibody cocktail (>40 mouse cytokines) to each prepared sample and incubated 1 hour. Then, the Array Buffer 6 was aspirated and replaced with the sample/antibody mixtures and incubated at 4° C. overnight. The following day, membranes were washed 3 times and Streptavidin-HRP (1:2000) was incubated for 30 minutes at room temperature on a rocking platform shaker. The membranes were washed again, and 1 ml of prepared Chemi Reagent mix was placed onto each membrane. Multiple exposure times were acquired using UVITEC digital analyzer (Alliance, Cambridge, UK).
The positive signals seen in the developed membranes can be identified by placing the transparency overlay template on the array image and aligning it with pairs of reference spots in the three corners of each array (see FIG. 10). […] Pixel densities (average signals of pair of duplicates which represent each cytokine) were analyzed by ImageJ and the average background was subtracted from each spot.
In details, the profiling of cytokines released (>40 cytokines) from RAW 264.7 and human macrophages challenged with paclitaxel (Sigma-Aldrich; 10 nM) or C5a (R&D Systems, Inc. MN, USA; 10 nM) for 24 h using a proteome profiler assay. […] The experimental assay is explained in example 4.
For the human macrophages, human XL Cytokine Array kit #Ary022B was used, while for murine macrophages mouse cytokine Array Panel A #Ary006 was used (R&D systems, USA).

F11 hybridoma cells = experiment: Real Time PCR for IL-8 mRNA expression in differentiated F11 cells; format: cell-based; settings: 20 h; 10 nM Paclitaxel or 50 nM C5a
Description: F11 hybridoma cells (ECACC 08062601), chosen as an alternative model of DRG neurons were cultured in DMEM medium (Euroclone, MI, Italy) supplemented with 10% FBS (Sigma-Aldrich St. Louis, CO, USA), 1% penicillin/streptomycin (Euroclone) and 1% glutamine (Euroclone) at 37° C., in a humidified 95% air-5% CO2 atmosphere. For the experiments, cells were used at 18th passage and seeded at 1×10^4 cells/cm2. After 24 h, cells were differentiated with rat NGF (rNGF) (Sigma). rNGF was dissolved in DMEM with 1% penicillin/streptomycin and 1% glutamine (FBS free) at the final concentration 50 ng/ml. The medium was replaced every 3 days until complete differentiation, which happened after 7 days. […]
For gene expression analysis, the following protocol was used: total RNA was extracted by Trizol reagent, according to the manufacturer's instructions. The total RNA concentration was determined spectrophotometrically in RNAase-free water, and 1 μg aliquots of total RNA were reverse-transcripted into cDNA using ProtoScript First Strand cDNA Synthesis Kit (NEB). […] Relative expression levels were calculated for each sample after normalization against reference gene, using the ΔΔCt method for comparing relative fold expression differences, as previously described [Livak et al., 2001 DOI: 10.1006/meth.2001.1262]. […]

Row | Molecule | binding to immobilised C5a (complement component 5a) | levels of MCP-1, MIP-1α, MIP-1β, MIP-2 and ID Ra compared to the control group [1] | proteome profile of cytokines released [1] | IL-8 relative mRNA expression (F11 hybridoma cells)
1 | CC(=O)O[C@H]1C(=O)[C@@]2(C)[C@H]([C@H](OC(=O)c3ccccc3)[C@]3(O)C[C@H](OC(=O)[C@H](O)[C@@H](NC(=O)c4ccccc4)c4ccccc4)C(C)=C1C3(C)C)[C@]1(OC(C)=O)CO[C@@H]1C[C@@H]2O [Paclitaxel] | not able to bind | significantly increased | resembled that of typical anaphylaxis | increase IL-8 expression levels
2 | B1 |  | significantly increased | resembled that of typical anaphylaxis | increases IL-8 expression levels

— patent publication US20240180888A1, “C5AR1 INHIBITORS FOR TREATING […] REACTIONS TO TAXANES” (Dompe' Farmaceutici SPA, priority 2021, published 2024)
